Measured values from patent US20050096360A1, “Inhibitors of semicarbazide-sensitive amine oxidase (SSAO) and VAP-1 mediated adhesion useful for treatment of diseases” (priority 2003, published 2005).
Structures can show the parent of a compound that is named as a salt.

Assays:
[1] = target: T1, SSAO (bovine plasma amine oxidase, PAO) (Bos taurus, UniProt Q29437); experiment: In vitro inhibition of SSAO activity, coupled colorimetric method; assay type: biochemical; settings: 30 min preincubation, benzylamine substrate; read-out: SSAO Inhibitory Activity IC50
T1 construct: Bovine plasma amine oxidase (PAO) was purchased from Worthington Biochemical; purchased Worthington Biochemical (Lakewood, N.J.)
T1 sequence (Q29437 17-762): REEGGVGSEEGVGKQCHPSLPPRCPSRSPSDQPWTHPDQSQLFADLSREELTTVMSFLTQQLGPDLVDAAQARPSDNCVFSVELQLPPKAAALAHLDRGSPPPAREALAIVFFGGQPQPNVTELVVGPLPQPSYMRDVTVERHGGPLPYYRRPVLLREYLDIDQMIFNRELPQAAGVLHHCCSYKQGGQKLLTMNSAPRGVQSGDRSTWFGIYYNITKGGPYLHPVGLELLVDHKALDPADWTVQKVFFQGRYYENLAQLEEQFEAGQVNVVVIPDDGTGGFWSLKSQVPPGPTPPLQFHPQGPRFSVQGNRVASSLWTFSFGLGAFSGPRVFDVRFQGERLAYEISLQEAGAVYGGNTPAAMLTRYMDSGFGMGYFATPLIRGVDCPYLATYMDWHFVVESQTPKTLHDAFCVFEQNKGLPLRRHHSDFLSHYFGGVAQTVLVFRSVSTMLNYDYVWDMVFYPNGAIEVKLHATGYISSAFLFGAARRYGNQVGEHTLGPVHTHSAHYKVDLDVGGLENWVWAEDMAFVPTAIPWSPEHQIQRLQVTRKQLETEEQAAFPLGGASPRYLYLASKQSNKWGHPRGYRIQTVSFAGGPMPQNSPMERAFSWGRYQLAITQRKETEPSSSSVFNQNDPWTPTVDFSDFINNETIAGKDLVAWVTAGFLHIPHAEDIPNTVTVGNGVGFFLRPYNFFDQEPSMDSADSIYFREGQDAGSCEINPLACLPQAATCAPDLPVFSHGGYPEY
Experimental: SSAO activity was measured using the coupled colorimetric method essentially as described for monoamine oxidase and related enzymes (Holt A. et al. (1997) Anal. Biochem. 244:384). Bovine plasma amine oxidase (PAO) was purchased from Worthington Biochemical (Lakewood, N.J.) and used as a source of SSAO for activity measurements. The SSAO assay was performed in 96 well microtitre plates as follows. A pre-determined amount of inhibitor diluted in 0.2 M potassium phosphate buffer, pH 7.6, was added to each well, if required. The amount of inhibitor varied in each assay but was generally at a final concentration of between 10 nM and 10 μM. Controls lacked inhibitor. In order to study the effects of potential inhibitors 50 μl of inhibitor solution were preincubated for 30 min at 37° C. with 0.4 mU of PAO in an a total volume of 130 μl of 0.2 M potassium phosphate buffer pH 7.6. Assays were then started by addition of 20 μl 10 mM benzylamine substrate and incubated for 20 min at 37° C. The following reagents were then added to a final reaction volume of 200 μl, 50 μl of freshly made chromogenic solution containing […] vanillic acid (Sigma # V-2250), […] 4-aminoantipyrine (Sigma # A-4328) and 12 U/ml horseradish peroxidase (Sigma # P-8250) in order to cause a change of 0.5 OD A490 per hour. This was within the linear response range of the assay. The plates were incubated for 1 hr at 37° C. and the increase in absorbance, reflecting SSAO activity, was measured at 490 nm using a microplate spectrophotometer (Power Wave 40, Bio-Tek Inst.). Inhibition was presented as percent inhibition compared to control after correcting for background absorbance and IC50 values calculated using GraphPad Prism software.

[2] = test system: adhesion of human PBMCs to rat HEC transfected with full-length human SSAO/VAP-1; experiment: In vitro adhesion of PBMCs to SSAO/VAP-1-transfected high endothelial cells; assay type: cell-based; settings: inhibitors at IC100 concentrations, antibody 10 μg/ml; 3 hr at 37° C.
Experimental: The studies in this Example were carried out in order to determine whether SSAO/VAP-1 transfected into endothelial cells retained the adhesion function and whether it played any role in the adhesion of freshly isolated human PBMCs to these cells. Moreover, the studies were also designed to determine whether blocking of SSAO/VAP-1 would have an impact on the level of adhesion between these two cell types. Adhesion assays were performed using cells labeled with the fluorescent dye Calcein-AM (Molecular Probes, OR, USA) as per the manufacturer's instructions. Briefly, rat lymph node high endothelial cells (HEC; isolation and culture was described in Ager, A. (1987) J. Cell Sci. 87: 133) were plated overnight in 96-well plates (2,000 cells/well). PBMCs (peripheral blood mononuclear cells) (1×10^7) were labeled with 1 ml of 10 μM Calcein-AM for 1 hr at 37° C., washed three times with RPMI, and added to the 96 well plates containing monolayers of HEC cells mock-transfected or transfected with full-length human SSAO/VAP-1 (60,000 PBMCs were plated per well containing 2,000 HEC cells). Adhesion was carried out for 3 hr at 37° C. Non-adherent cells were removed by washing three times with RPMI and fluorescence was measured in a fluorescence plate reader at an excitation wavelength of 485 nm and emission wavelength of 530 nm. Several controls were included, such as HEC cells and PBMCs (labeled and unlabeled) alone.
(§1) These studies were repeated using the adhesion assay as described above to evaluate the inhibitors of the invention. Adhesion blockers used included an anti-human VAP-1 monoclonal antibody (Serotec, Oxford, UK), neuramidase (a sialidase, because SSAO/VAP-1 is a sialoglycoprotein; Sigma), and several function-blocking antibodies to rat adhesion molecules (CD31-PECAM, CD54-ICAM-1, […]-P Selectin). […] Antibodies (10 μg/ml) and neuramidase (5 mU) were incubated with the HECs for 30 min at 37° C.; excess antibody was washed away prior to the addition of the labeled PBMCs. Small-molecule inhibitors were pre-incubated the same way at IC100 concentrations, but the amounts present in the supernatant were not washed away to preserve the IC100 concentration during the adhesion step.

SSAO = experiment: IC100 concentrations of SSAO inhibitors used in the adhesion assay; assay type: biochemical; settings: FIG. 7 legend
Excerpt: FIG. 7 depicts the effect of blockage of SSAO/VAP-1 on binding between peripheral blood mononuclear cells (PBMCs) and high endothelial cells (HEC). FIG. 7A is a control experiment showing the effect of various compounds used for treatment on the adhesion of PBMCs to mock-transfected high endothelial cells; a non-treated control is included for comparison (MNT). FIG. 7B is a control experiment showing the effect of various compounds used for treatment on the adhesion of PBMCs to high endothelial cells transfected with VAP-1; a non-treated control is included for comparison (VNT).
as §1

SMILES: C=C(CNN)c1ccccc1 [Example 2, Hydrochloride]
- IC50 [1]: 0.035 µM
- number of PBMCs adherent to SSAO/VAP-1 transfected HECs [2]: reduced
- IC100 (SSAO) (SSAO): 150 nM

SMILES: C=C(CNN)c1ccc(F)cc1.Cl [Example 8, N-[2-(4′-fluorophenyl)-allyl]-hydrazine Hydrochloride]
- IC50 [1]: 0.032 µM
- number of PBMCs adherent to SSAO/VAP-1 transfected HECs [2]: reduced
- IC100 (SSAO) (SSAO): 250 nM

SMILES: Cl.NNC/C(=C/F)c1ccccc1 [Example 10, (E)-1-fluoro-2-phenyl-3-hydrazinopropene Hydrochloride]
- IC50 [1]: 0.065 µM
